The record followed here is ChEMBL document CHEMBL2094260, “Malaria Box Tuberculosis Screening Data”.

Assay [1] deals with Mycobacterium tuberculosis. The experiment in a line: MMV: Screen against Mtb, single point, non replicating, at 25uM. In kind it is functional.
The subject of assay [2] is Mycobacterium tuberculosis. The experiment in a line: MMV: Screen against Mtb, single point, replicating, at 25uM. In kind it is functional.

One may read the inhibition as the relative decrease from the control value, in per cent.

`CN(C)CCCNc1c2ccccc2nc2ccccc12`: the inhibition at 25 µM was determined as 17.8% in assay [1] and 18.4% in assay [2].

Consider `COc1ccc(-c2c(C)nn3c(N)c(C#N)cnc23)cc1OC`, for which the inhibition at 25 µM in assay [1] came to 11.5%; in assay [2], 5.83%.

As for `CSC1=NC(=Nc2c(C)cccc2C)C2(CCC(C(C)(C)C)CC2)N1c1ccc(Cl)cc1` (centres undefined), the inhibition at 25 µM stood at 9.94% in assay [1] and 1.28% in assay [2].

As to `COc1ccc2nc(C)cc(Nc3ccccc3O)c2c1`, the inhibition at 25 µM in assay [1] was 7.14%; in assay [2] it was 13.6%.

Regarding `Cc1cc(C)cc(Nc2cc(C)nc3nc(C(F)(F)F)nn23)c1`, the inhibition at 25 µM came out at 4.53% in assay [1] and 7.5% in assay [2].

Turning to `O=C(NCC(c1ccsc1)N1CCCCCC1)c1ccc(C(F)(F)F)cc1` (centres undefined), the results for the inhibition at 25 µM in assay [1] and in assay [2] were 10.5% and 8.41%, respectively.

As for `COc1ccc(-c2cc3c(SCC(=O)Nc4cc(C(F)(F)F)ccc4Cl)nccn3n2)cc1`, the inhibition at 25 µM in assay [1] came out at 15%; in assay [2], 10.2%.

Turning to `Cc1ccc(-c2cc3c(SCC(=O)Nc4cc(C(F)(F)F)ccc4Cl)nccn3n2)cc1`, the inhibition at 25 µM in assay [1] was determined as 8.19%; in assay [2] it was 3.25%.

`CCN(CC)CCNc1ccnc2cc(Cl)ccc12`: the inhibition at 25 µM was 18.3% in assay [1] and 4.01% in assay [2].

Take `CCCCCC(=O)N1c2ccccc2N=C2CC(c3ccc(OC)c(OC)c3)CC(O)=C2C1c1ccc(C(F)(F)F)cc1` (centres undefined): the inhibition at 25 µM in assay [1] came to 16%; in assay [2], 12.5%.

With `Cc1cc(Nc2ccc3ccccc3c2)n2ncnc2n1`, the figures for the inhibition at 25 µM in assay [1] and in assay [2] were 19.9% and -2.52%, respectively.

With `COc1ccc(-c2nc(NC(=O)CS(=O)(=O)c3ccc(F)cc3)sc2C)cc1`, the figures for the inhibition at 25 µM in assay [1] and in assay [2] were 21.5% and 14.9%, respectively.

On to `O=C(O)C1Cc2c([nH]c3ccccc23)C(c2ccc(Cl)cc2Cl)N1` (centres undefined), for which the inhibition at 25 µM in assay [1] amounted to 8.72%; in assay [2], 13.7%.

Consider `FC(F)(F)c1ccc(Nc2nnnc3ccccc23)cc1`, for which the inhibition at 25 µM in assay [1] was 31.2%; in assay [2] it was 44.2%.

Turning to `Cc1ccc(N2C(=O)C3C(C2=O)C2(c4ccccc4)C(=O)C3(c3ccccc3)C(c3ccccc3)=C2c2ccccc2)cc1` (centres undefined), the results for the inhibition at 25 µM in assay [1] and in assay [2] were 4.88% and 9.93%, respectively.

Take `CCc1c(C)c(=N)c2ccccc2n1C`: the inhibition at 25 µM in assay [1] was 2.08%; in assay [2] it was 4.16%.

As to `COc1cccc(NC(=O)[C@H](C(C)C)n2c(=O)[nH]c3ccccc3c2=O)c1`, the inhibition at 25 µM in assay [1] amounted to 5.22%; in assay [2] it was 7.35%.

Take `CCOC(=O)c1cn(CC)c2cc(N(C)CCc3ccc(OC)c(OC)c3)c(F)cc2c1=O`: the inhibition at 25 µM in assay [1] worked out at 11.9%; in assay [2], 14.8%.

Consider `CC(C)(C)c1ccc(O)c(CNC2CCCCC2)c1`, for which the inhibition at 25 µM in assay [1] amounted to 16.6%; in assay [2], 38.8%.

On to `O=[N+]([O-])c1ccc(C=NNc2nc3ccccc3[nH]2)cc1`, for which the inhibition at 25 µM in assay [1] was found to be 16.2%; in assay [2], 16.3%.

`CC1CN(C(=O)c2sc3ccccc3c2Cl)CC(C)O1` (centres undefined): the inhibition at 25 µM is 22.9% in assay [1] and 15.5% in assay [2].

Turning to `CN(C)c1ccc(C=Cc2nc(=O)c3ccccc3o2)cc1`, the inhibition at 25 µM in assay [1] amounted to 20.4%; in assay [2] it was 11.9%.

Regarding `COc1ccc(C2=C(c3ccc(OC)cc3)C3(c4ccccc4)C(=O)C2(c2ccccc2)C2C(=O)N(c4ccc(C)cc4)C(=O)C23)cc1` (centres undefined), the inhibition at 25 µM in assay [1] was determined as 11%; in assay [2], 10.1%.

Take `CCOC(=O)c1c(NC(=O)c2ccccc2)sc2c(O)c(CN(CC)CC)ccc12`: the inhibition at 25 µM came out at 16% in assay [1] and 51.8% in assay [2].

For `CCOC(=O)C1=C(c2ccccc2)N=c2sc(=Cc3cc(C)n(-c4ccc(F)cc4)c3C)c(=O)n2C1c1cccc(OC)c1OC` (centres undefined), the figures for the inhibition at 25 µM in assay [1] and in assay [2] were 6.1% and 1.88%, respectively.

Consider `CCC1(C)CC(CCNCc2ccccc2O)(c2ccc(C)cc2)CCO1` (centres undefined), for which the inhibition at 25 µM stood at 2.96% in assay [1] and 14.5% in assay [2].

As for `Cc1cc(Nc2ccc(C)c(Cl)c2)n2nc(C(F)(F)F)nc2n1`, the inhibition at 25 µM in assay [1] was 4.53%; in assay [2] it was 19.5%.

In the case of `Fc1ccc2[nH]c3c(NCCCN4CCOCC4)ncnc3c2c1`, the inhibition at 25 µM came to 13.8% in assay [1] and 13.6% in assay [2].

Take `COc1ccc(C=C2SC(=N)N(c3ccccc3OC)C2=O)cc1`: the inhibition at 25 µM turned out to be 6.97% in assay [1] and 24.5% in assay [2].

As to `COc1ccc(NC(=O)C2c3ccccc3C(=O)N(CC(C)C)C2c2cccs2)cc1Cl` (centres undefined), the results for the inhibition at 25 µM in assay [1] and in assay [2] were 22.2% and -1.46%, respectively.

Take `CCOC(=O)c1c(C)n(-c2ccc(Cl)cc2)c2ccc(OC(=O)C=Cc3ccccc3)cc12`: the inhibition at 25 µM in assay [1] stood at 18.8%; in assay [2], 25.1%.

Turning to `Cc1cccc(Nc2nc(N)c3ccccc3n2)c1`, the inhibition at 25 µM is -2.28% in assay [1] and 9.63% in assay [2].

For the compound `CCn1c(CN2CCN(Cc3ccccc3)CC2)nc2cc(NC(=O)c3cccs3)ccc21`, the inhibition at 25 µM in assay [1] was found to be 15.2%; in assay [2] it was 12.5%.

Regarding `COc1ccccc1CNC(=O)CCn1c(=O)[nH]c2ccccc2c1=O`, the inhibition at 25 µM in assay [1] was determined as 11.2%; in assay [2], 6.74%.

`COc1cc(OC)c(N(C)C(=O)c2cc3c(s2)-c2ccccc2S(=O)(=O)C3)cc1Cl`: the inhibition at 25 µM in assay [1] amounted to 6.97%; in assay [2], 38%.

For the compound `Oc1ccccc1CNCC12CC3CC(CC(C3)C1)C2`, the inhibition at 25 µM was 18.7% in assay [1] and 49.7% in assay [2].

Take `CNCCCNc1ccnc2cc(Cl)ccc12`: the inhibition at 25 µM in assay [1] came out at 5.05%; in assay [2], 8.11%.

Take `COc1ccccc1CNC(=O)CCn1c(=O)[nH]c2ccsc2c1=O`: the inhibition at 25 µM in assay [1] came to 0.338%; in assay [2] it was 9.93%.

In the case of `COc1ccc(Br)cc1C1Nc2ccc3ccccc3c2C2=C1C(=O)CC(c1ccccc1)C2` (centres undefined), the values for the inhibition at 25 µM in assay [1] and in assay [2] were 20.9% and 16.2%, respectively.

As to `Cc1cc(C=C2SC(=Nc3ccccc3)N(C3CCCC3)C2=O)c(C)n1-c1ccc(Cl)cc1`, the inhibition at 25 µM in assay [1] was -1.41%; in assay [2], 2.04%.

In the case of `CCc1ccc(Nc2cc(C)c3ccc(O)cc3n2)cc1`, the results for the inhibition at 25 µM in assay [1] and in assay [2] were 17.3% and 4.16%, respectively.

As to `Oc1ccc(C(=C(Cl)Cl)c2ccc(O)cc2)cc1`, the inhibition at 25 µM in assay [1] turned out to be 0.782%; in assay [2], 9.95%.

Consider `COc1cc(CNCCc2ccc(Cl)cc2)cc(OC)c1O`, for which the inhibition at 25 µM in assay [1] came to 35.9%; in assay [2] it was 0.392%.

In the case of `COc1ccc(C(C)=O)cc1N1C(=O)C2C(C1=O)C1(c3ccccc3)C(=O)C2(c2ccccc2)C(c2ccc(C)cc2)=C1c1ccc(C)cc1` (centres undefined), the results for the inhibition at 25 µM in assay [1] and in assay [2] were 28.1% and 22.4%, respectively.

Take `CCCc1c(CC)c(=N)c2ccccc2n1C`: the inhibition at 25 µM in assay [1] amounted to 4%; in assay [2] it was 16%.

As to `CCOC(=O)c1cnc2c(C)cc(C)cc2c1Nc1ccc(OC)c(OC)c1`, the values for the inhibition at 25 µM in assay [1] and in assay [2] were 3.83% and 4.46%, respectively.

As for `CCCn1c(=N)c(C(=O)NC2CCCCC2)cc2c(=O)n3cccc(C)c3nc21`, the results for the inhibition at 25 µM in assay [1] and in assay [2] were 2.38% and -4.62%, respectively.
